# Several values for one entry are separate records, joined by “and”; a condition that tells them apart may be missing. Equal entries are not always repeated. Where two headings read alike, the source gives them in different places. Positions of bridges follow the written chain, without caps; N, C: chain ends. Non-standard residues stand in square brackets, D forms with d. Residues, ends and D or L forms follow the SMILES beside them. Chains are numbered I, II in the order given. Ahx = NCCCCCC(=O)O
# Assays:
# Type in all cases: cell-based
# [1] = system: Klebsiella pneumoniae ATCC 13883 (sensitive)
# From the text: (§1) All microorganisms were purchased from the American Type Culture Collection (ATCC). To determine the antibacterial activity of synthetic peptides against HCAI bacteria, the Staphylococcus aureus strains ATCC 25923 and ATCC 33591 were employed as sensitive and resistant strains, respectively, of a Gram-positive microorganisms species, and Klebsiella pneumoniae ATCC 13883 and ATCC 700603 as sensitive and resistant strains of a Gram-negative species.
# (§2) The antibacterial activity assay for peptides and controls was performed according to the National Committee for Clinical Laboratory Standards method M7-A7 [11]. MIC and MBC values were determined using a broth microdilution and growth inhibition method with some modification. Briefly, MIC assays were performed by liquid inhibition growth assay in an untreated sterile 96-well flat-bottom tissue culture plate. Bacteria were cultured overnight on Mueller-Hinton agar (MHA). Three colonies were transferred to 8 mL of Mueller-Hinton broth (MHB) and incubated at 37°C until the mid-exponential phase of growth. The turbidity of the cultures was measured and adjusted spectrophotometrically to McFarland standard 0.5, then diluted to a final concentration of […]. Synthetic antibacterial peptide candidate stock solutions were diluted to final concentrations per well of 200, 100, 50, 25, 12.5, and 6.25 μM. […]
# (§3) Wells containing MHB with bacterial inoculum only served as bacterial growth controls. Additional controls included MHB alone and MHB with ciprofloxacin (CIP) (2 μg/mL) and bacteria as a positive control. The microplate was incubated for 24 h at 37°C, and growth inhibition was examined by monitoring the optical density at 620 nm (OD620). MIC was defined as the lowest peptide concentration that inhibited bacteria growth >90%.
# [2] = system: Klebsiella pneumoniae ATCC 700603 (resistant)
# From the text: as §1, §2, §3
# [3] = system: Staphylococcus aureus ATCC 25923 (sensitive)
# From the text: as §1, §2, §3
# [4] = system: Staphylococcus aureus ATCC 33591 (resistant)
# From the text: as §1, §2, §3
# [5] = system: Klebsiella pneumoniae ATCC 13883 (sensitive); remark: listed apart in the source
# From the text: as §1
# (§4) To determine the MBC, an aliquot from each well of the MIC assay was spread onto MHA. After 18 h at 37°C, the concentration that inhibited bacterial growth was determined. Each of these tests was performed four times. MBC was defined as the lowest concentration of peptide that reduced the number of bacteria by 99.9% in vitro [12].
# [6] = system: Klebsiella pneumoniae ATCC 700603 (resistant); remark: listed apart in the source
# From the text: as §1, §4
# [7] = system: Staphylococcus aureus ATCC 25923 (sensitive); remark: listed apart in the source
# From the text: as §1, §4
# [8] = system: Staphylococcus aureus ATCC 33591 (resistant); remark: listed apart in the source
# From the text: as §1, §4
# human erythrocytes = test: Haemolytic activity; conditions: 6.25-100 μM peptide; human erythrocytes 2% haematocrit in PBS, 2 h 37°C, OD492; n = 2
# Experimental: Human erythrocytes collected from the blood samples of healthy humans were harvested by centrifugation for 7 min at 162 ×g and washed three times in phosphate-buffered saline (PBS). The erythrocytes (2% haematocrit in PBS) were incubated with peptide molecules at several concentrations (6.25, 12.5, 25, 50, and 100 μM), for 2 h at 37°C. PBS was used as a negative control, and sterile distilled water was used as a positive control for haemolysis (100% of haemolysis). The plate was subsequently centrifuged at 1459 ×g for 10 min at 4°C. Aliquots of the supernatants of each well (75 μL) were carefully transferred to a new sterile 96-well plate, and haemolytic activity was evaluated by measuring the OD492 using an Asys Expert Plus Microplate reader. The experiments were performed in duplicate, and peptide haemolysis activity was calculated.
# Lastly, to evaluate the effects of the peptides on normal human erythrocytes, their haemolysis activity was investigated (Figure 6). The percentage of haemolytic activity on human red blood cells after 2 hours was determined via the standard microtitre dilution method. The peptide concentration is reported as μM.
compound,measurement,setting,value
N=C(N)NCCC[C@H](NC(=O)[C@H](Cc1c[nH]c2ccccc12)NC(=O)[C@H](CCC(N)=O)NC(=O)[C@H](Cc1c[nH]c2ccccc12)NC(=O)[C@H](CCCNC(=N)N)NC(=O)[C@@H](N)CCCNC(=N)N)C(=O)NCCCC[C@H](NC(=O)[C@H](CCCNC(=N)N)NC(=O)[C@H](Cc1c[nH]c2ccccc12)NC(=O)[C@H](CCC(N)=O)NC(=O)[C@H](Cc1c[nH]c2ccccc12)NC(=O)[C@H](CCCNC(=N)N)NC(=O)[C@@H](N)CCCNC(=N)N)C(=O)NCCCCCC(N)=O [Dimeric] (I: H-RRWQWRK[Ahx]-NH2 / II: H-RRWQWR; amide I:7-II:C; N-terminus assumed),MIC,"[1]; ATCC 13883, 24 h",12.5 µM
same,MIC,"[1]; K. pneumoniae ATCC 13883 sensitive, MHB, 24 h 37°C, OD620, >90% inhibition, average of four independent experiments in duplicate",27 µg/mL
same,MIC,"[1]; K. pneumoniae ATCC 13883 sensitive, MHB, 24 h 37°C, OD620, >90% inhibition, average of four independent experiments in duplicate, listed as dimeric",≥ 27 µg/mL
same,MIC,"[1]; K. pneumoniae ATCC 13883 sensitive, value in parentheses, MHB, 24 h 37°C, OD620, >90% inhibition","≥ 12,5 µM"
same,concentration at which antibacterial activity was exhibited (dose-response profile),"[1]; K. pneumoniae sensitive strain, Figure 3","≤ 27 μg/mL and ≤ 12,5 μM"
same,MIC,"[2]; ATCC 700603, 24 h",12.5 µM
same,MIC,"[2]; K. pneumoniae ATCC 700603 resistant, MHB, 24 h 37°C, OD620, >90% inhibition, average of four independent experiments in duplicate",27 µg/mL
same,MIC,"[2]; K. pneumoniae ATCC 700603 resistant, MHB, 24 h 37°C, OD620, >90% inhibition, average of four independent experiments in duplicate, listed as dimeric",≥ 27 µg/mL
same,MIC,"[2]; K. pneumoniae ATCC 700603 resistant, value in parentheses, MHB, 24 h 37°C, OD620, >90% inhibition","≥ 12,5 µM"
same,concentration at which antibacterial activity was exhibited (dose-response profile),"[2]; K. pneumoniae resistant strain, Figure 3","≤ 27 μg/mL and ≤ 12,5 μM"
same,MIC,"[3]; ATCC 25923, 24 h",6.25 µM
same,MIC,"[3]; S. aureus ATCC 25923 sensitive, MHB, 24 h 37°C, OD620, lowest concentration inhibiting growth >90%, average of four independent experiments in duplicate",14 µg/mL
same,MIC,"[3]; S. aureus ATCC 25923 sensitive, MHB, 24 h 37°C, OD620, lowest concentration inhibiting growth >90%, average of four independent experiments in duplicate, listed as dimeric",≥ 14 µg/mL
same,MIC,"[3]; S. aureus ATCC 25923 sensitive, value in parentheses, MHB, 24 h 37°C, OD620, >90% inhibition, average of four independent experiments in duplicate",≥ 6.25 µM
same,concentration at which antibacterial activity was displayed (dose-response profile),"[3]; S. aureus sensitive strain, Figure 2",≥ 14 μg/mL and ≥ 6.25 μM
same,MIC,"[4]; ATCC 33591, 24 h",25 µM
same,MIC,"[4]; S. aureus ATCC 33591 resistant, MHB, 24 h 37°C, OD620, >90% inhibition, average of four independent experiments in duplicate",55 µg/mL
same,MIC,"[4]; S. aureus ATCC 33591 resistant, MHB, 24 h 37°C, OD620, >90% inhibition, average of four independent experiments in duplicate, listed as dimeric",≥ 55 µg/mL
same,MIC,"[4]; S. aureus ATCC 33591 resistant, value in parentheses, MHB, 24 h 37°C, OD620, >90% inhibition",≥ 25 µM
same,MBC,"[5]; ATCC 13883, 18 h",25 µM
same,MBC,"[5]; K. pneumoniae ATCC 13883 sensitive, MHA, 18 h 37°C, 99.9% reduction",55 µg/mL
same,MBC as a function of the MBC of the tetrameric peptide,"[5]; K. pneumoniae sensitive strain, from concentrations in μg/mL",0.5 x MBC
same,MBC,"[6]; ATCC 700603, 18 h",100 µM
same,MBC,"[6]; K. pneumoniae ATCC 700603 resistant, MHA, 18 h 37°C, 99.9% reduction",220 µg/mL
same,MBC as a function of the MBC of the tetrameric peptide,"[6]; K. pneumoniae resistant strain, from concentrations in μg/mL",1.9 x MBC
same,MBC,"[7]; ATCC 25923, 18 h",50 µM
same,MBC,"[7]; S. aureus ATCC 25923 sensitive, MHA, 18 h 37°C, 99.9% reduction, average of four independent experiments",110 µg/mL
same,MBC,"[7]; S. aureus ATCC 25923 sensitive, MHA, 18 h 37°C, 99.9% reduction, average of four independent experiments, listed as dimeric",≥ 110 µg/mL
same,MBC,"[7]; S. aureus ATCC 25923 sensitive, value in parentheses, MHA, 18 h 37°C, 99.9% reduction",≥ 50 µM
same,MBC as a function of the MBC of the tetrameric peptide,"[7]; S. aureus sensitive strain, from concentrations in μg/mL",1.9 x MBC
same,MBC,"[8]; ATCC 33591, 18 h",50 µM
same,MBC,"[8]; S. aureus ATCC 33591 resistant, MHA, 18 h 37°C, 99.9% reduction",110 µg/mL
same,MBC,"[8]; S. aureus ATCC 33591 resistant, MHA, 18 h 37°C, 99.9% reduction, listed as dimeric",≥ 110 µg/mL
same,MBC,"[8]; S. aureus ATCC 33591 resistant, value in parentheses, MHA, 18 h 37°C, 99.9% reduction",≥ 50 µM
same,MBC as a function of the MBC of the tetrameric peptide,"[8]; S. aureus resistant strain, from concentrations in μg/mL",1.9 x MBC
same,haemolysis activity over the concentrations tested,human erythrocytes,< 5%

# — paper PMC6015718, “Effect of Polyvalence on the Antibacterial Activity of a Synthetic Peptide Derived from Bovine Lactoferricin against Healthcare-Associated Infectious Pathogens” (BioMed Research International, 2018)
